Experimental data published in PubChem BioAssay (NCI).
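Each compound was tested at five concentrations against cells in 96-well plates for 48 hours. Abbreviation: GI50, concentration required for 50% inhibition of growth. TGI is the concentration that stops growth completely.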

Assays:
Test in all cases: DTP human tumour cell line panel, 48 h
[1] = test system: HT29 colon
[2] = test system: COLO 205 colon
[3] = test system: PC-3 prostate
[4] = test system: RXF 393 renal
[5] = test system: SW-620 colon
[6] = test system: SN12C renal
[7] = test system: BT-549 breast
[8] = test system: ACHN renal
[9] = test system: MDA-MB-435
[10] = test system: LOX IMVI melanoma

Row | Structure (SMILES) | TGI [1] | TGI [2] | TGI [3] | TGI [4] | TGI [5] | TGI [6] | TGI [7] | TGI [8] | TGI [9] | TGI [10] | GI50 [9] | GI50 [10] | GI50 [1] | GI50 [4] | GI50 [6] | GI50 [7] | GI50 [8]
1 | COC(=O)c1cc(NC(=O)c2cc(NC(=O)c3cc([N+](=O)[O-])cn3C)cn2C)cn1C | > 100 µM | > 100 µM | > 100 µM | > 100 µM | > 100 µM | > 100 µM | > 100 µM | > 100 µM | > 100 µM | > 100 µM |  |  |  |  |  |  | 
2 | O=C1Sc2ccc(Br)cc2C(=O)Sc2ccccc21 | 35.3 µM | 28.4 µM | 26.1 µM | 12.4 µM | 67.7 µM | 34.8 µM | 28.2 µM | 32.8 µM | 21.7 µM | 25.3 µM |  |  |  |  |  |  | 
3 | CC(C)C(C/C=C1\CC(CO)(COC(=O)c2ccccc2)OC1=O)C(C)C (stereo not drawn) | 38.2 µM | 25.4 µM | 32.5 µM | 45.4 µM | 33.8 µM | 31.1 µM | 36.9 µM | 32 µM | > 100 µM | 54.6 µM |  |  |  |  |  |  | 
4 | O=C1C(NCCc2ccc(O)c(O)c2)=CC(=O)c2ncccc21 | > 93.3 µM | 28 µM | > 100 µM | 28.4 µM | 32.3 µM | 34.4 µM | 19.6 µM | 33.5 µM | 3.28 µM | 26.7 µM |  |  |  |  |  |  | 
5 | CN(C)c1nc(NC23CC4CC(CC(C4)C2)C3)nc(N(C)C)n1 | > 100 µM | > 49.6 µM | > 42.2 µM | 17.7 µM | > 56.2 µM | > 85.4 µM | > 100 µM | > 100 µM | > 100 µM | 17.8 µM |  |  |  |  |  |  | 
6 | CCCCCCCCCCCCCCCCCCNc1ccn(C2OC(COP(=O)(O)OCC3CCC(n4cnc5c(=O)[nH]cnc54)O3)C(O)C2O)c(=O)n1 (stereo not drawn) | > 100 µM | > 100 µM | 47.6 µM | > 100 µM | > 100 µM | > 100 µM | > 100 µM | > 100 µM | > 100 µM | > 100 µM |  |  |  |  |  |  | 
7 | COC(=O)c1ccccc1C#CC#Cc1ccccc1C(=O)OC | > 10 µM | 3.28 µM | > 10 µM | > 10 µM | > 10 µM | > 10 µM | > 10 µM | > 10 µM | > 10 µM | > 10 µM |  |  |  |  |  |  | 
8 | [Se]=P(c1ccccc1)(c1ccccc1)c1ccc(C(c2ccccc2)=P(c2ccccc2)(c2ccccc2)c2ccccc2)cc1 | 2.17 µM | 0.659 µM | 9.34 µM | 10.9 µM | 19.2 µM | 10.2 µM | 6.56 µM | 8.06 µM | 3.46 µM | 2.48 µM |  |  |  |  |  |  | 
9 | O=C1CSC(/C(=C\c2ccc(Cl)cc2)c2nc3ccccc3[nH]2)=N1 | 46.5 µM | 36.4 µM | 36.5 µM | 2.14 µM | 35.6 µM | 34.2 µM | 36.6 µM | 19 µM | 32.6 µM | 32.4 µM |  |  |  |  |  |  | 
10 | O=C(NCCC(F)(F)C(F)(F)C(F)(F)C(F)(F)F)NC1OC(CO)C(O)C(O)C1O (stereo not drawn) | > 100 µM | > 100 µM | > 100 µM | > 100 µM | > 100 µM | > 100 µM | > 100 µM | > 100 µM | > 100 µM | > 100 µM |  |  |  |  |  |  | 
11 | O=c1[nH]nc(-c2ccccc2)n1/N=C/c1ccncc1 | > 100 µM | > 100 µM | > 100 µM | > 100 µM | > 100 µM | > 100 µM | > 100 µM | > 100 µM | > 100 µM | > 100 µM |  |  |  |  |  |  | 
12 | COC(=O)C1=C(C)NC2(O)C=CC(=O)C3C(=O)N(c4ccccc4)C(=O)C132 (stereo not drawn) | 70.3 µM | > 100 µM | > 100 µM | > 100 µM | > 100 µM | > 100 µM | > 100 µM | > 100 µM | > 100 µM | > 100 µM |  |  |  |  |  |  | 
13 | CCOC(=O)c1c(Br)c(-c2ccc(Br)cc2)c(Br)n1C | 42.5 µM | 34.3 µM | 71.1 µM | 34.2 µM | > 100 µM | 84 µM | 79.4 µM | 84.7 µM | 22.6 µM | 30.4 µM | 4.26 µM | 14.3 µM |  |  |  |  | 
14 | CCOC(=O)c1cc(C(=O)c2ccccc2)n2nc(-c3ccc(Cl)cc3)ccc12 | 64.2 µM | > 100 µM | 30.4 µM | 32.7 µM | > 100 µM | 78.6 µM | 35.4 µM | 28.2 µM | > 100 µM | > 100 µM |  |  |  |  |  |  | 
15 | Clc1ccc(Cc2nc3ccc(CCN4CCN(c5ccccc5)CC4)cc3[nH]2)cc1 | 22.5 µM | 15.3 µM | > 100 µM | 19.1 µM | > 100 µM | 33.8 µM | 34 µM | > 100 µM | 26.6 µM | 27 µM |  |  |  |  |  |  | 
16 | CC(C)=CC(=O)O[C@H]1C(=O)O[C@@H]2C[C@H]3[C@H](C)C(=O)C(O[C@@H]4O[C@H](CO)[C@@H](O)[C@H](O)[C@H]4O)=C[C@]3(C)[C@H]3[C@@H](O)[C@H](O)[C@]4(C(=O)O)OC[C@]32[C@@H]14 | > 100 µM | > 100 µM | > 100 µM | 73.1 µM | > 100 µM | > 100 µM | > 100 µM | > 100 µM | > 100 µM | > 100 µM |  | 40.3 µM | 35.6 µM | 25.4 µM | > 100 µM | > 100 µM | > 100 µM
